This note sets out measurements from US12448389B2, “BRM targeting compounds and associated methods of use” (Prelude Therapeutics Incorporated, priority 2020, dated 2025).

One assay has as its target T1, SMARCA2-HiBiT (Homo sapiens, UniProt P51531).
T1 construct: SMARCA2-HiBiT knock-in Hela monoclonal cell (CS302366); host or cells: HeLa monoclonal knock-in line (CRISPR HiBiT knock-in at the endogenous locus, heterozygous)
The assay can be described thus: SMARCA2 HiBiT degradation assay in HeLa cells. The format is cell-based. Conditions: 18 hours incubation; for DC50: read-out: HeLa_HiBit-SM2 DC50; for Dmax: HeLa, read-out: HeLa-HiBit-SM2 Dmax (%). The method, boiled down: (§1)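 HeLa monoclonal lines with heterozygous HiBiT knock-in were seeded at 2500 cells/well in EMEM with 10% FBS and treated with compound for 18 h at 37 °C. Remaining tagged protein was measured by Nano-Glo HiBiT lytic luminescence after 30–60 min at RT, and values came from curve fitting.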

For a further assay, the target named is T2, SMARCA4-HiBiT (Homo sapiens, UniProt P51532).
T2 construct: SMARCA4-HiBiT knock-in Hela monoclonal cell (CS3023226); host or cells: HeLa monoclonal knock-in line (CRISPR HiBiT knock-in at the endogenous locus, heterozygous)
The assay can be described thus: SMARCA4 HiBiT degradation assay in HeLa cells. Conditions: 18 hours incubation; for DC50: read-out: HeLa-HiBit-SM4 DC50; for Dmax: HeLa, read-out: HeLa-HiBit-SM4 Dmax (%). It counts as cell-based. Summed up: as §1
Background: With HiBiT, luminescence reflects the tagged protein that the partner subunit can reach.

A value given as a limit tells only on which side of the number the result lay.

T2 sequence (P51532 whole entry): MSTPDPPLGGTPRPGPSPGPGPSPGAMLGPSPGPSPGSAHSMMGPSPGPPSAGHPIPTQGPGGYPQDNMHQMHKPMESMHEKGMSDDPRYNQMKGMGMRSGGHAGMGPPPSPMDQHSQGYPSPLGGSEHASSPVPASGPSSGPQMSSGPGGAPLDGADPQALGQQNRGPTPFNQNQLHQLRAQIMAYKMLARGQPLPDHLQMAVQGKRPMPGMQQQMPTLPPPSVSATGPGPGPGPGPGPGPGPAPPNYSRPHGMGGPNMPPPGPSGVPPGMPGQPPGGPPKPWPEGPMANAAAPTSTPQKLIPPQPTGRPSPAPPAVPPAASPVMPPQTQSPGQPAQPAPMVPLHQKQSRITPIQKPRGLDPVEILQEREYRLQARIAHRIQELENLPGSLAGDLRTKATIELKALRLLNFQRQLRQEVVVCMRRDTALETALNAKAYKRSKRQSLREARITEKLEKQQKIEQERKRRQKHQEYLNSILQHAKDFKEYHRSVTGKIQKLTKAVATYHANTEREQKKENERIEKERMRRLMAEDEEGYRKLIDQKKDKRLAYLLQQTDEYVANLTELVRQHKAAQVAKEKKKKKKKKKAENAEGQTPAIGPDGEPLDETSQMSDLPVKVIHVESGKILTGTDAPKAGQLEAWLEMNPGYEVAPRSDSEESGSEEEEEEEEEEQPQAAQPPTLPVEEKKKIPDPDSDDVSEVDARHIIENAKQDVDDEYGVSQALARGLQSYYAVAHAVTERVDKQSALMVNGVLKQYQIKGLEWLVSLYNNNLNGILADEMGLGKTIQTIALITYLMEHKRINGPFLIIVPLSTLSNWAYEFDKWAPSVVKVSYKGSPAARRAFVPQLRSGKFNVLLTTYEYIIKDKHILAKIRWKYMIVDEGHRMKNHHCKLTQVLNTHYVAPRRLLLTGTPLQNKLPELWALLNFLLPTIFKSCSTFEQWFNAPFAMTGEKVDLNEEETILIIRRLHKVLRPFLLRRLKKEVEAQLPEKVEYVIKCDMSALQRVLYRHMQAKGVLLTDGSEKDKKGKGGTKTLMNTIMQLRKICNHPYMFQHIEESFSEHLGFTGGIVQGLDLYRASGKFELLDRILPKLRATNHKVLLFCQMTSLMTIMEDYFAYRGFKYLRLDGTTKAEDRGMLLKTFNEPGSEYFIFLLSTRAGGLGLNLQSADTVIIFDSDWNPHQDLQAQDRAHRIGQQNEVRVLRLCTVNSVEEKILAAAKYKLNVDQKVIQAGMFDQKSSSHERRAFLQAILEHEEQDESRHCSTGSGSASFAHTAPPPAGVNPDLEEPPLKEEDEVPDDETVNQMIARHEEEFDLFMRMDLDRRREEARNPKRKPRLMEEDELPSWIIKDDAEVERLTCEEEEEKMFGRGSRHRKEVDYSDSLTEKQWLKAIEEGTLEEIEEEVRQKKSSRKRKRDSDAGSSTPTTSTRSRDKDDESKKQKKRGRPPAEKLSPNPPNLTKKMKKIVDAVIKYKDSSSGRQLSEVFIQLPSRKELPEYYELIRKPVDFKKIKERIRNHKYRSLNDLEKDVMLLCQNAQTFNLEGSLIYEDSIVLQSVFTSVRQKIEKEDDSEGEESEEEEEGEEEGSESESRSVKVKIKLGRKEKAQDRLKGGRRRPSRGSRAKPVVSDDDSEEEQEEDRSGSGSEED
T1 sequence (P51531 whole entry): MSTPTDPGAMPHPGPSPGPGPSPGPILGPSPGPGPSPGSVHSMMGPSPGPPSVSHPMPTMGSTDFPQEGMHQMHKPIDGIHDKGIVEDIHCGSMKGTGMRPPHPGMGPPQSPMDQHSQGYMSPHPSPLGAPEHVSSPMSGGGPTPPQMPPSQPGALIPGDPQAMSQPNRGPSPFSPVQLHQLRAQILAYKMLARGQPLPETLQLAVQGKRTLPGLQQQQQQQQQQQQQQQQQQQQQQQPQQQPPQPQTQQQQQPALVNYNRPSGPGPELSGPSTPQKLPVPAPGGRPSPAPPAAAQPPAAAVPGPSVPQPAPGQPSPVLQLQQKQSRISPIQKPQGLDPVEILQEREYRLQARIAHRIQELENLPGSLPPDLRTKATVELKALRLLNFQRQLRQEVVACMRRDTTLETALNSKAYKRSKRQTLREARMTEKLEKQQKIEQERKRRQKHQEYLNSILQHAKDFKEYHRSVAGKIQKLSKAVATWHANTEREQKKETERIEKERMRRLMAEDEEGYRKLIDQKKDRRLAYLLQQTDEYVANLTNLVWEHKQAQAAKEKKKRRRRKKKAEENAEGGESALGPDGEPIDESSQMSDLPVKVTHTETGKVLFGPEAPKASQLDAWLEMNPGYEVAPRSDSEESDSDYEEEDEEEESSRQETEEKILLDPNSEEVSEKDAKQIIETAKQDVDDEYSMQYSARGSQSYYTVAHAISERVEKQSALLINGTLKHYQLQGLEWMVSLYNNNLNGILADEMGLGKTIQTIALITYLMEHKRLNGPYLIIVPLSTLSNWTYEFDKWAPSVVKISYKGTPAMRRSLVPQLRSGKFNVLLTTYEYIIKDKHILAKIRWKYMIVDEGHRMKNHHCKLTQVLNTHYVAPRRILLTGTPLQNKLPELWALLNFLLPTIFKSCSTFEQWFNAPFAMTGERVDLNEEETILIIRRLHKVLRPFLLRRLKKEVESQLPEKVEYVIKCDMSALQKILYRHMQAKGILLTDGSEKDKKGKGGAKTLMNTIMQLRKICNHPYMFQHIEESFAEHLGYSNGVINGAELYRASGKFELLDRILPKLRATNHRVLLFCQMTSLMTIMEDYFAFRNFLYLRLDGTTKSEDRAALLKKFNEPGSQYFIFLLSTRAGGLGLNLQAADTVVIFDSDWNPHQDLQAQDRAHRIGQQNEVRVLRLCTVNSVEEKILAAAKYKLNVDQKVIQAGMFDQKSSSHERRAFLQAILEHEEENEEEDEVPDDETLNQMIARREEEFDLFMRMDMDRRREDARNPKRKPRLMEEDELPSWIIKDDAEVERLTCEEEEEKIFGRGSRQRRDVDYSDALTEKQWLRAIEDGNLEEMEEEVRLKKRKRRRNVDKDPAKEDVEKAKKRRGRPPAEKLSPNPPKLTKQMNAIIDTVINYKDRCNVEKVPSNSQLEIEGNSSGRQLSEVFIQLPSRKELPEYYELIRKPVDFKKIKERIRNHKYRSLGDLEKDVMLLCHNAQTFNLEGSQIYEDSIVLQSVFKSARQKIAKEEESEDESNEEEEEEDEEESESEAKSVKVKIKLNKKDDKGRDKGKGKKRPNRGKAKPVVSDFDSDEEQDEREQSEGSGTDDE

As to `O=C1CCC(N2C(=O)c3ccc(N4CCC(CN5CCC(F)(CN6CCN7c8cc(-c9ccccc9O)nnc8NC[C@H]7C6)CC5)CC4)cc3C2=O)C(=O)N1` (stereo partly drawn) [Example 175, 2-(2,6-dioxopiperidin-3-yl)-5-[4-[[4-fluoro-4-[[(10S)-4-(2-hydroxyphenyl)-1,5,6,8,12-pentazatricyclo[8.4.0.02,7]tetradeca-2,4,6-trien-12-yl]methyl]piperidin-1-yl]methyl]piperidin-1-yl]isoindole-1,3-dione], on SMARCA2-HiBiT, the DC50 (as a rule, the concentration giving 50% degradation) was under 0.01 µM and the Dmax (usually the largest share of the target that was removed) was over 85%. At SMARCA4-HiBiT, the 50% degradation concentration (DC50) is under 0.01 µM and the Dmax was over 85%.

Regarding `C[C@@H]1C[C@H](CN2C[C@@H]3[C@H](C2)[C@H]3CN2CCN3c4cc(-c5ccccc5O)nnc4NC[C@H]3C2)CCN1c1cc2c(cc1F)C(=O)N(C1CCC(=O)NC1=O)C2=O` (some centres unmarked) [Example 176], the DC50 on SMARCA2-HiBiT is under 0.01 µM; on SMARCA4-HiBiT it was 0.01 to 0.1 µM. Besides, the Dmax at SMARCA2-HiBiT is over 85%; at SMARCA4-HiBiT it was 50 to 75%.

For the molecule `O=C1CCC(N2C(=O)c3ccc(N4CCC(CN5CC6CC(CN7CCN8c9cc(-c%10ccccc%10O)nnc9NC[C@H]8C7)C6C5)CC4)cc3C2=O)C(=O)N1` (stereo partly drawn) [Example 177, 2-(2,6-dioxopiperidin-3-yl)-5-[4-[[6-[[(10S)-4-(2-hydroxyphenyl)-1,5,6,8,12-pentazatricyclo[8.4.0.02,7]tetradeca-2,4,6-trien-12-yl]methyl]-3-azabicyclo[3.2.0]heptan-3-yl]methyl]piperidin-1-yl]isoindole-1,3-dione], on SMARCA2-HiBiT, the DC50 was under 0.01 µM and the Dmax was over 85%. At SMARCA4-HiBiT, the DC50 was under 0.01 µM and the Dmax lay in the range of 50 to 75%.

With `N#CC1(CN2CCN3c4cc(-c5ccccc5O)nnc4NC[C@H]3C2)CCN(CC2CCN(c3ccc4c(c3)C(=O)N(C3CCC(=O)NC3=O)C4=O)CC2)CC1` (stereo partly drawn) [Example 178, 1-[[1-[2-(2,6-dioxopiperidin-3-yl)-1,3-dioxoisoindol-5-yl]piperidin-4-yl]methyl]-4-[[(10S)-4-(2-hydroxyphenyl)-1,5,6,8,12-pentazatricyclo[8.4.0.02,7]tetradeca-2,4,6-trien-12-yl]methyl]piperidine-4-carbonitrile], the DC50 at SMARCA2-HiBiT and on SMARCA4-HiBiT was under 0.01 µM throughout. The maximal degradation (Dmax) on SMARCA2-HiBiT is over 85%; at SMARCA4-HiBiT, 75 to 85%.

Take `N#CC1(CN2CCC(CN3CCN4c5cc(-c6ccccc6O)nnc5NC[C@H]4C3)CC2)CCN(c2ccc3c(c2)C(=O)N(C2CCC(=O)NC2=O)C3=O)CC1` (stereo partly drawn) [Example 179, 1-[2-(2,6-dioxopiperidin-3-yl)-1,3-dioxoisoindol-5-y]-4-[[4-[[(10S)-4-(2-hydroxyphenyl)-1,5,6,8,12-pentazatricyclo[8.4.0.02,7]tetradeca-2,4,6-trien-12-yl]methyl]piperidin-1-yl]methyl]piperidine-4-carbonitrile]: on SMARCA2-HiBiT, the half-maximal degradation concentration (DC50) was under 0.01 µM and the Dmax was in the range of 50 to 75%. Also, on SMARCA4-HiBiT, the DC50 is under 0.01 µM and the Dmax was in the range of 50 to 75%.

For the molecule `O=C1CCC(N2C(=O)c3ccc(N4[C@@H]5CC[C@H]4CC(CN4CCC(CN6CCN7c8cc(-c9ccccc9O)nnc8NC[C@H]7C6)CC4)C5)cc3C2=O)C(=O)N1` (stereo partly drawn) [Example 180, 2-(2,6-dioxopiperidin-3-yl)-5-[(1S,5R)-3-[[4-[[(10S)-4-(2-hydroxyphenyl)-1,5,6,8,12-pentazatricyclo[8.4.0.02,7]tetradeca-2,4,6-trien-12-yl]methyl]piperidin-1-yl]methyl]-8-azabicyclo[3.2.1]octan-8-yl]isoindole-1,3-dione], at SMARCA2-HiBiT, the DC50 was under 0.01 µM and the Dmax was in the range of 75 to 85%. Also, on SMARCA4-HiBiT, the DC50 is under 0.01 µM and the Dmax was 75 to 85%.

With `O=C1CCC(N2C(=O)c3ccc(N4CCC(CN5CCC(CN6CCN7c8cc(-c9ccccc9O)nnc8NC[C@H]7C6)CC5)C(F)(F)C4)cc3C2=O)C(=O)N1` (stereo partly drawn) [Example 181, 5-[3,3-difluoro-4-[[4-[[(10S)-4-(2-hydroxyphenyl)-1,5,6,8,12-pentazatricyclo[8.4.0.02,7]tetradeca-2,4,6-trien-12-yl]methyl]piperidin-1-yl]mehtyl]piperidin-1-yl]-2-(2,6-dioxopiperidin-3-yl) isoindoline-1,3-dione], at SMARCA2-HiBiT, the 50% degradation concentration (DC50) was under 0.01 µM and the Dmax is over 85%. Moreover, at SMARCA4-HiBiT, the DC50 was under 0.01 µM and the Dmax is over 85%.

In the case of `O=C1CCC(N2C(=O)c3ccc(N4CCC(CN5C[C@@H]6[C@H](C5)[C@H]6CN5CCN6c7cc(-c8ccccc8O)nnc7NC[C@H]6C5)C(F)(F)C4)cc3C2=O)C(=O)N1` (stereo partly drawn) [Example 182, 5-[3,3-difluoro-4-[[(1S,5R)-6-[[(10S)-4-(2-hydroxyphenyl)-1,5,6,8,12-pentazatricyclo[8.4.0.02,7]tetradeca-2(7),3,5-trien-12-yl]methyl]-3-azabicyclo[3.1.0]hexan-3-yl]methyl]piperidin-1-yl]-2-(2,6-dioxopiperidin-3-yl)isoindole-1,3-dione], on SMARCA2-HiBiT, the DC50 was under 0.01 µM and the maximal degradation (Dmax) is over 85%. At SMARCA4-HiBiT, the DC50 lay in the range of 0.01 to 0.1 µM and the greatest degradation seen (Dmax) was in the range of 50 to 75%.

`C[C@@H]1C[C@H](CN2C[C@@H]3[C@H](C2)[C@H]3CN2CCN3c4cc(-c5ccccc5O)nnc4NC[C@H]3C2)CCN1c1ccc2c(c1)C(=O)N(C1CCC(=O)NC1=O)C2=O` (stereo partly drawn) [Example 183, 2-(2,6-dioxopiperidin-3-yl)-5-[(2R,4R)-4-[[(1S,5R)-6-[[(10S)-4-(2-hydroxyphenyl)-1,5,6,8,12-pentazatricyclo[8.4.0.02,7]tetradeca-2,4,6-trien-12-yl]methyl]-3-azabicyclo[3.1.0]hexan-3-yl]methyl]-2-methylpiperidin-1-yl] isoindole-1,3-dione]: at SMARCA2-HiBiT, the DC50 is under 0.01 µM and the maximal degradation (Dmax) was over 85%. For the same molecule, at SMARCA4-HiBiT, the DC50 is under 0.01 µM and the Dmax lay in the range of 75 to 85%.

As to `C[C@@H]1C[C@H](CN2CCC(CN3CCN4c5cc(-c6ccccc6O)nnc5NC[C@H]4C3)CC2)CCN1c1ccc2c(c1)C(=O)N(C1CCC(=O)NC1=O)C2=O` (stereo partly drawn) [Example 184, 2-(2,6-dioxopiperidin-3-yl)-5-[(2R,4R)-4-[[4-[[(10S)-4-(2-hydroxyphenyl)-1,5,6,8,12-pentazatricyclo[8.4.0.02,7]tetradeca-2,4,6-trien-12-yl]methyl]piperidin-1-yl]methyl]-2-methylpiperidin-1-yl]isoindole-1,3-dione], on SMARCA2-HiBiT, the DC50 was under 0.01 µM and the Dmax is over 85%. Further, at SMARCA4-HiBiT, the 50% degradation concentration (DC50) was under 0.01 µM and the Dmax was over 85%.

For `O=C1CCC(N2C(=O)c3ccc(N4CC[C@H](CN5CCC(CN6CCN7c8cc(-c9ccccc9O)nnc8NC[C@H]7C6)CC5)[C@H](F)C4)cc3C2=O)C(=O)N1` (stereo partly drawn) [Example 185, 2-(2,6-dioxopiperidin-3-yl)-5-[(3S,4R)-3-fluoro-4-[[4-[[(10S)-4-(2-hydroxyphenyl)-1,5,6,8,12-pentazatricyclo[8.4.0.02,7]tetradeca-2(7),3,5-trien-12-yl]methyl]piperidin-1-yl]methyl]piperidin-1-yl]isoindole-1,3-dione], the DC50 at SMARCA2-HiBiT and on SMARCA4-HiBiT was under 0.01 µM in each case. In addition, the Dmax at SMARCA2-HiBiT was in the range of 75 to 85%; on SMARCA4-HiBiT it was 50 to 75%.

With `O=C1CCC(N2C(=O)c3ccc(N4CC[C@H](CN5C[C@@H]6[C@H](C5)[C@H]6CN5CCN6c7cc(-c8ccccc8O)nnc7NC[C@H]6C5)[C@H](F)C4)cc3C2=O)C(=O)N1` (stereo partly drawn) [Example 186, 2-(2,6-dioxopiperidin-3-yl)-5-[(3S,4R)-3-fluoro-4-[[(1S,5R)-6-[[(10S)-4-(2-hydroxyphenyl)-1,5,6,8,12-pentazatricyclo[8.4.0.02,7]tetradeca-2(7),3,5-trien-12-yl]methyl]-3-azabicyclo[3.1.0]hexan-3-yl]methyl]piperidin-1-yl]isoindole-1,3-dione], on SMARCA2-HiBiT, the DC50 was under 0.01 µM and the Dmax lay within 75 to 85%. Further, at SMARCA4-HiBiT, the 50% degradation concentration (DC50) is under 0.01 µM and the Dmax is 50 to 75%.

For the molecule `O=C1CCC(N2C(=O)c3ccc(CN4CCC(CN5CCC(CN6CCN7c8cc(-c9ccccc9O)nnc8NC[C@H]7C6)CC5)CC4)cc3C2=O)C(=O)N1` (stereo partly drawn) [Example 187, 2-(2,6-dioxopiperidin-3-yl)-5-[[4-[[4-[[(10S)-4-(2-hydroxyphenyl)-1,5,6,8,12-pentazatricyclo[8.4.0.02,7]tetradeca-2,4,6-trien-12-yl]methyl]piperidin-1-yl]methyl]piperidin-1-yl]methyl]isoindole-1,3-dione], on SMARCA2-HiBiT, the DC50 is under 0.01 µM and the Dmax is 50 to 75%. Further, on SMARCA4-HiBiT, the DC50 was under 0.01 µM and the Dmax was 50 to 75%.

In the case of `O=C1CCC(N2C(=O)c3ccc(N4CCC(CN5CC6CC(CN7CCN8c9cc(-c%10ccccc%10O)nnc9NC[C@H]8C7)C6C5)C(F)(F)C4)cc3C2=O)C(=O)N1` (stereo partly drawn) [Example 188, 5-[3,3-difluoro-4-[[6-[[(10S)-4-(2-hydroxyphenyl)-1,5,6,8,12-pentazatricyclo[8.4.0.02,7]tetradeca-2(7),3,5-trien-12-yl]methyl]-3-azabicyclo[3.2.0]heptan-3-yl]methyl]piperidin-1-yl]-2-(2,6-dioxopiperidin-3-yl)isoindole-1,3-dione], at SMARCA2-HiBiT, the DC50 was under 0.01 µM and the Dmax is over 85%. Further, at SMARCA4-HiBiT, the DC50 was under 0.01 µM and the Dmax was 75 to 85%.
